Results taken from patent US9808466B2, “Macrocyclic compounds as protein kinase inhibitors” (Fundación Centro Nacional de Investigaciones Oncologicas …, priority 2011, dated 2017).
Where two headings read alike, the source gives them in different places.

How the values were obtained:
PIM-1 = biological target: T1, PIM-1 (Homo sapiens, UniProt P11309); assay: PIM-1 biochemical assay (ADP Hunter); details: PIM1
T1 construct: histidine tag (C); made in house
Source text: The biochemical assay to measure PIM-1 activity relies on the ADP Hunter assay kit (DiscoveRx Corp., Cat. #90-0077), that determines the amount of ADP as direct product of the kinase enzyme activity.
The enzyme has been expressed and purified in-house as a recombinant human protein with a C-terminal histidine tag. The protein is active and stable.
Assay conditions were as indicated by the kit manufacturers with the following adaptations for the kinase activity step: • Kinase assay buffer and assay volume stay as recommended (15 mM HEPES, pH 7.4, 20 mM NaCl, 1 mM EGTA, 0.02% Tween 20, 10 mM MgCl2 and 0.1 mg/ml bovine γ-globulins/75 μl assay volume) • Incubation time and temperature: 60 min at 30° C. • PIM-1 concentration: 50 pg/μl • ATP concentration: 100 μM • PIM-1 substrate peptide: PIMtide ([…]) (SEQIDNO. 1) • Peptide concentration: 60 μM • Positive control for kinase activity inhibition: 1-10 μM Staurosporine • DMSO concentration have to stay below 2% during the kinase reaction
Assays were performed in either 96 or 384-well plates. The final outcome of the coupled reactions provided by the kit is the release of the fluorescent product Resorufin and has been measured with a multilabel HTS counter VICTOR V (PerkinElmer) using an excitation filter at 544 nm and an emission filter at 580 nm.

PI3K (p110α/p85α) = biological target: T2, PI3K (p110α/p85α) (Homo sapiens, UniProt P42336); assay: PI3K activity assay (ADP Hunter Plus); assay type: biochemical
T2 construct: purchased Carna Biosciences 07CBS-0402A
Experimental: The kinase activity was measured by using the commercial ADP Hunter™ Plus assay available from DiscoveRx (#33-016), which is a homogeneous assay to measure the accumulation of ADP, a universal product of kinase activity. […] Reaction was carried out for 1 hour at 25° C. Reagent A and B were sequentially added to the wells and plates were incubated for 30 min at 37° C. Fluorescence counts were read in a Victor instrument (Perkin Elmer) with the recommended settings (544 and 580 nm as excitation and emission wavelengths, respectively). Values were normalized against the control activity included for each enzyme (i.e., 100% PI3 kinase activity, without compound). These values were plotted against the inhibitor concentration and were fit to a sigmoid dose-response curve by using the Graphad software.

mTOR = biological target: T3, mTOR (Homo sapiens, UniProt P42345); assay: mTOR assay (LanthaScreen kinase activity assay); assay type: biochemical
T3 construct: purchased Invitrogen PV4754
Experimental: The enzymatic mTOR activity was measured using a LanthaScreen™ kinase activity assay (Invitrogen). The enzyme was purchased from Invitrogen (PV4754), as well as the GFP-labeled substrate (4EBP1-GFP; PV4759) and the Tb-anti-p4EBP1(pThr46) antibody (PV4757). The assay was performed in 50 mM HEPES buffer, pH 7.5, containing 1.5 mM MnCl2, 10 mM MgCl2, 1 mM EGTA, 2.5 mM DTT and 0.01% Tween-20. The concentration of the assay components were the following: 0.24 nM mTOR kinase, 400 nM 4EBP1-GFP, […] and serial dilutions of the compound (inhibitor) to be evaluated. After 1 h incubation at room temperature, 20 mM EDTA was used to stop the reaction and terbium-labeled antibody (4 nM) added to detect phosphorylated product. The antibody associates with the phosphorylated product resulting in an increased TR-FRET value. The TR-FRET value (a dimensionless number) was calculated as the ratio of the acceptor signal (GFP, emission at 520 nm) to the donor signal (terbium, emission at 495 nm). Values were plotted against the inhibitor concentration and fitted to a sigmoid dose-response curve using GraphPad software.

[1] = read-out: PIM-1 activity, IC50 (semi-quantitative class)
[2] = read-out: PI3K alpha activity, IC50 (semi-quantitative class)
[3] = read-out: PI3K alpha actual IC50 (in parentheses)
[4] = read-out: mTOR activity, IC50 (semi-quantitative class)
[5] = read-out: mTOR actual IC50 (in parentheses)

T2 sequence (P42336 whole entry): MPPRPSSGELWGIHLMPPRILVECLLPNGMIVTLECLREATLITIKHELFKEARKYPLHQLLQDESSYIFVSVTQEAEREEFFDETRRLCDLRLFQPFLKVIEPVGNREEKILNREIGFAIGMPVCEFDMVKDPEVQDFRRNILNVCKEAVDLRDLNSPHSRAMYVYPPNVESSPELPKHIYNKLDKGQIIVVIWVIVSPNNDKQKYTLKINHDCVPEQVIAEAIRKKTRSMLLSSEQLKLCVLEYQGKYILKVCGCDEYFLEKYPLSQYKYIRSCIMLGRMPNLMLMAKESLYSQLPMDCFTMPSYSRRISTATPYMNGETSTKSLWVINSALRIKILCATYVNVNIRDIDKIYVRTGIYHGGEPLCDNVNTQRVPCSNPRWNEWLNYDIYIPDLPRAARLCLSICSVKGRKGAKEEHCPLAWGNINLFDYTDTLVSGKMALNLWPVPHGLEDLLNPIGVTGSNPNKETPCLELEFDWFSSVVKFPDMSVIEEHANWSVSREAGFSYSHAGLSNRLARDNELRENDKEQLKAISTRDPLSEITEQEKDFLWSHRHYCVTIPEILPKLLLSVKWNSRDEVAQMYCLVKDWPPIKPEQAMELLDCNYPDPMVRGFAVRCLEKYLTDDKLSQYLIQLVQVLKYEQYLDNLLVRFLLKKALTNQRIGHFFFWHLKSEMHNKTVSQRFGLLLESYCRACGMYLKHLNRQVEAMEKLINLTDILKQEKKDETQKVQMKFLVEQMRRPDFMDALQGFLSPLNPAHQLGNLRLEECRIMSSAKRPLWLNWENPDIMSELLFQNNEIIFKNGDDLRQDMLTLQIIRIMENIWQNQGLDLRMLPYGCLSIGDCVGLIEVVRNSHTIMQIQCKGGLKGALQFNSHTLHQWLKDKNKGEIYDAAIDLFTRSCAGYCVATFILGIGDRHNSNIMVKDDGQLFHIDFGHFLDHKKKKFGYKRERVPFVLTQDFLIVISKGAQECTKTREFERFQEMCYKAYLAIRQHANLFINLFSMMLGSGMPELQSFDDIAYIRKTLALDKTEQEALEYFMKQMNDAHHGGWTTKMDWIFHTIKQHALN
T2 sequence (P27986 whole entry partner): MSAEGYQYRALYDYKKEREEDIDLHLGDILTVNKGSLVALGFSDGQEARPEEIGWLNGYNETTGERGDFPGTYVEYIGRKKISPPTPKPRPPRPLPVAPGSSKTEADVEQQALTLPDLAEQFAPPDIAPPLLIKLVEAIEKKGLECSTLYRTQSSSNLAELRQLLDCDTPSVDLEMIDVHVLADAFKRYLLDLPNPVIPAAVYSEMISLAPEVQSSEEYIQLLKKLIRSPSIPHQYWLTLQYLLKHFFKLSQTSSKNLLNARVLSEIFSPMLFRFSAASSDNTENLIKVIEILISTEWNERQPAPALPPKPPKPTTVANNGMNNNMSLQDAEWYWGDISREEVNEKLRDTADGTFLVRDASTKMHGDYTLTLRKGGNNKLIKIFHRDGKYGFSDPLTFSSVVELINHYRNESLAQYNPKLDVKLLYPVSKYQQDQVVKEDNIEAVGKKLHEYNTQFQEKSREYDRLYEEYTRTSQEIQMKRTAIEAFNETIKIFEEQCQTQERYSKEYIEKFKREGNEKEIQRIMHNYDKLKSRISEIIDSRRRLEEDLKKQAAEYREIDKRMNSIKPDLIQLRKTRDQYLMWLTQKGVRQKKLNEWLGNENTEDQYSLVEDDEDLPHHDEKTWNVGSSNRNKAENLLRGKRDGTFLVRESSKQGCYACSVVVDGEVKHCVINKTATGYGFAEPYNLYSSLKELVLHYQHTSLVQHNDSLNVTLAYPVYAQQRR
T3 sequence (P42345 1360-2549 limits assumed): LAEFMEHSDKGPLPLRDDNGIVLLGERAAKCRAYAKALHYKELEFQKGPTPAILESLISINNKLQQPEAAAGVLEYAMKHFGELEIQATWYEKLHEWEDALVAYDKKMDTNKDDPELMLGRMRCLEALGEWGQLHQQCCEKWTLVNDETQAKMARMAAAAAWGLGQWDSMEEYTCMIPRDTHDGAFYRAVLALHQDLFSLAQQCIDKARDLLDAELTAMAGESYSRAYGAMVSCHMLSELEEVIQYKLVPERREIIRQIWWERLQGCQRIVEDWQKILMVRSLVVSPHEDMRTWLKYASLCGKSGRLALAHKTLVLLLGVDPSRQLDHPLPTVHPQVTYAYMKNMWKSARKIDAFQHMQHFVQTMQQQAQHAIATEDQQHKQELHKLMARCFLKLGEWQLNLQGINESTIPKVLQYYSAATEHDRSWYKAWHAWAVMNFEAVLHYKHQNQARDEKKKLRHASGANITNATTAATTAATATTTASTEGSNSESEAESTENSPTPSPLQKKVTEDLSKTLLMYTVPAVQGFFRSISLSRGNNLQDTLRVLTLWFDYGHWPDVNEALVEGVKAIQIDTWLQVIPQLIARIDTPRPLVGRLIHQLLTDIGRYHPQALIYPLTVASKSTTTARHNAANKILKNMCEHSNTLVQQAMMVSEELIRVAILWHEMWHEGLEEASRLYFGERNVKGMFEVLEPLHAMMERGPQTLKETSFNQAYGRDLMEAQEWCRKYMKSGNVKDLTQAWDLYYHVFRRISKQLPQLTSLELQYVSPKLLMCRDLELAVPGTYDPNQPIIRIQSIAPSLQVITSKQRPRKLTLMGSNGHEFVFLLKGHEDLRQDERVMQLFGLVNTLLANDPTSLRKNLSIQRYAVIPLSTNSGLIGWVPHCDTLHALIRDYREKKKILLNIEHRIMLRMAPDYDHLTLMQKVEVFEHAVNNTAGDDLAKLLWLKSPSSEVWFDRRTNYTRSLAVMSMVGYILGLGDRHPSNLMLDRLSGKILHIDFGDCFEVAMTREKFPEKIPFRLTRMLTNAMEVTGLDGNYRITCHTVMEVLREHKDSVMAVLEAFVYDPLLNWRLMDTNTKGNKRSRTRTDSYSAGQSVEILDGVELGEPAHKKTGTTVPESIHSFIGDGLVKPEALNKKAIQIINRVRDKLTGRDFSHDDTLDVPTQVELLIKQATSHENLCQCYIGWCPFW
T1 sequence (P11309 whole entry): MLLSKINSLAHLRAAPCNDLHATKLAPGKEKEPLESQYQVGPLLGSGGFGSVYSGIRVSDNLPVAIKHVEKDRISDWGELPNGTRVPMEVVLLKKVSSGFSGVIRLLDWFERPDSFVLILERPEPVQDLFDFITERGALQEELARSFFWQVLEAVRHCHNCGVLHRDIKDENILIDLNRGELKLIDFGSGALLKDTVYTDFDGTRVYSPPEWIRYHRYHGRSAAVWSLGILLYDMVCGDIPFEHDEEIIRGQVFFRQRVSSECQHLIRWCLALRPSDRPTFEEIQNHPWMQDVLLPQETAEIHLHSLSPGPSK

SMILES	IC50 (PIM-1; [1])	IC50 (PI3K (p110α/p85α); [2])	IC50 (PI3K (p110α/p85α); [3])	IC50 (mTOR; [4])	IC50 (mTOR; [5])	IC50 (PIM-1; read-out: PIM-1 actual IC50 (in parentheses))	IC50 (PI3K (p110α/p85α); read-out: PI3K alpha IC50 (in parentheses))	IC50 (PI3K (p110α/p85α); read-out: PI3K alpha activity (semi-quantitative IC50))	IC50 (mTOR; read-out: mTOR activity (semi-quantitative IC50))
COc1ncc2cc1NS(=O)(=O)c1cccc(c1)C(=O)NCc1cncc(c1)-c1ccnc3ccc-2cc13 [compound 1]	> 1 µM	< 0.1 µM	0.002 µM	< 0.1 µM	0.064 µM	–	–	–	–
O=C1NCc2cncc(c2)-c2ccnc3ccc(cc23)-c2cnc(O)c(c2)NS(=O)(=O)c2cccc1c2 [compound 2]	> 1 µM	0.1 to 1 µM	–	> 1 µM	–	–	–	–	–
COc1ncc2cc1NS(=O)(=O)c1cccc(c1)C(=O)NCc1ccc(F)c(c1)-c1ccnc3ccc-2cc13 [compound 4]	> 1 µM	< 0.1 µM	0.003 µM	0.1 to 1 µM	–	–	–	–	–
COc1ncc2cc1NS(=O)(=O)c1cccc(c1)C(=O)NCc1cccc(c1F)-c1ccnc3ccc-2cc13 [compound 5]	> 1 µM	< 0.1 µM	0.023 µM	0.1 to 1 µM	–	–	–	–	–
COc1ncc2cc1NS(=O)(=O)c1cccc(c1)C(=O)NCC1CCN(CC1)c1ccnc3ccc-2cc13 [compound 6]	> 1 µM	< 0.1 µM	0.011 µM	< 0.1 µM	0.072 µM	–	–	–	–
COc1ncc2cc1NS(=O)(=O)c1cccc(c1)C(=O)NCCCCNc1ccnc3ccc-2cc13 [compound 7]	> 1 µM	> 1 µM	–	> 1 µM	–	–	–	–	–
COc1ncc2cc1NS(=O)(=O)c1cccc(c1)C(=O)NCc1cncc(c1)-c1cnc3sc-2nn13 [compound 8]	> 1 µM	< 0.1 µM	0.007 µM	> 1 µM	–	–	–	–	–
O=C1NCc2cncc(c2)-c2cnc3sc(nn23)-c2cnc(O)c(c2)NS(=O)(=O)c2cccc1c2 [compound 9]	0.1 to 1 µM	0.1 to 1 µM	–	> 1 µM	–	–	–	–	–
COc1ncc2cc1NS(=O)(=O)c1cccc(c1)C(=O)NCc1cncc(c1)-c1cnn3ccc-2nc13 [compound 11]	> 1 µM	< 0.1 µM	0.0004 µM	< 0.1 µM	0.004 µM	–	–	–	–
COc1ncc2cc1NS(=O)(=O)c1cccc(c1)C(=O)NCc1cncc(c1)-c1cnc3ccc-2nn13 [compound 12]	> 1 µM	< 0.1 µM	0.0004 µM	< 0.1 µM	0.005 µM	–	–	–	–
COc1ncc2cc1NS(=O)(=O)c1cccc(c1)C(=O)NCc1cccc(c1)-c1cnc3ccc-2nn13 [compound 13]	> 1 µM	< 0.1 µM	0.0004 µM	< 0.1 µM	0.01 µM	–	–	–	–
COc1ncc2cc1NS(=O)(=O)c1cccc(c1)C(=O)NCc1cc(ccn1)-c1ccnc3ccc-2cc13 [compound 15]	> 1 µM	< 0.1 µM	0.02 µM	0.1 to 1 µM	–	–	–	–	–
COc1ncc2cc1NS(=O)(=O)c1cccc(c1)C(=O)NCc1cccc(c1)-c1cnc3sc-2nn13 [compound 17]	> 1 µM	< 0.1 µM	0.009 µM	0.1 to 1 µM	–	–	–	–	–
COc1ncc2cc1NS(=O)(=O)c1cccc(c1)C(=O)NCCn1cc(cn1)-c1cnc3ccc-2nn13 [compound 18]	> 1 µM	< 0.1 µM	0.005 µM	< 0.1 µM	0.067 µM	–	–	–	–
COc1ncc2cc1NS(=O)(=O)c1cccc(c1)C(=O)NCCn1cc(cn1)-c1ccnc3ccc-2cc13 [compound 19]	> 1 µM	< 0.1 µM	0.004 µM	< 0.1 µM	0.021 µM	–	–	–	–
COc1ncc2cc1NS(=O)(=O)c1cccc(c1)C(=O)NCc1cncc(c1)-c1c[nH]c3ncc-2cc13 [compound 20]	> 1 µM	< 0.1 µM	0.08 µM	0.1 to 1 µM	–	–	–	–	–
COc1ncc2cc1NS(=O)(=O)c1cccc(c1)C(=O)NCc1cncc(c1)-c1ncnc3sc-2cc13 [compound 21]	0.1 to 1 µM	< 0.1 µM	0.085 µM	> 1 µM	–	–	–	–	–

SMILES	IC50 (PIM-1; [1])	IC50 (PI3K (p110α/p85α); [2])	IC50 (PI3K (p110α/p85α); [3])	IC50 (mTOR; [4])	IC50 (mTOR; [5])	IC50 (PIM-1; read-out: PIM-1 actual IC50 (in parentheses))	IC50 (PI3K (p110α/p85α); read-out: PI3K alpha IC50 (in parentheses))	IC50 (PI3K (p110α/p85α); read-out: PI3K alpha activity (semi-quantitative IC50))	IC50 (mTOR; read-out: mTOR activity (semi-quantitative IC50))
COc1ncc2cc1NS(=O)(=O)c1cccc(c1)C(=O)NCCN1CC=C(CC1)c1cnc3ccc-2nn13 [compound 23]	> 1 µM	< 0.1 µM	0.005 µM	< 0.1 µM	0.022 µM	–	–	–	–
COc1ncc2cc1NS(=O)(=O)c1cccc(c1)C(=O)N(C)CC1CCN(CC1)c1ccnc3ccc-2cc13 [compound 24]	> 1 µM	< 0.1 µM	0.003 µM	< 0.1 µM	0.004 µM	–	–	–	–
COc1ncc2cc1NS(=O)(=O)c1cccc(c1)C(=O)NCCn1cc(cn1)-c1cnn3ccc-2nc13 [compound 26]	> 1 µM	< 0.1 µM	0.004 µM	< 0.1 µM	0.04 µM	–	–	–	–
COc1ncc2cc1NS(=O)(=O)c1cccc(c1)C(=O)NCc1cncc(c1)-c1ncnc3c1SC2=C3 [compound 27]	< 0.1 µM	0.1 to 1 µM	–	> 1 µM	–	0.04 µM	–	–	–
COc1ncc2cc1NS(=O)(=O)c1cccc(c1)C(=O)NCc1cccc(c1)-c1ncnc3c1SC2=C3 [compound 28]	0.1 to 1 µM	0.1 to 1 µM	–	> 1 µM	–	–	–	–	–
COc1ncc2cc1NS(=O)(=O)c1cc(c(F)cc1F)C(=O)NCc1cccc(c1)-c1ccnc3ccc-2cc13 [compound 29]	> 1 µM	< 0.1 µM	0.006 µM	0.1 to 1 µM	–	–	–	–	–
COc1ncc2cc1NS(=O)(=O)c1cccc(c1)C(=O)NCc1cncc(c1)-c1cnc3ccc-2cn13 [compound 30]	> 1 µM	< 0.1 µM	0.011 µM	< 0.1 µM	0.049 µM	–	–	–	–
COc1ncc2cc1NS(=O)(=O)c1cccc(c1)C(=O)NCC1CCN(CC1)c1ncnc3ccc-2cc13 [compound 32]	> 1 µM	< 0.1 µM	0.002 µM	< 0.1 µM	0.005 µM	–	–	–	–
COc1ncc2cc1NS(=O)(=O)c1cccc(c1)C(=O)NCCn1cc(cn1)-c1cnc3ccc-2cn13 [compound 34]	> 1 µM	< 0.1 µM	0.0076 µM	< 0.1 µM	0.066 µM	–	–	–	–
COc1ncc2cc1NS(=O)(=O)c1cccc(c1)C(=O)NCc1cccc(c1)-c1ccnc3ccc-2nc13 [compound 35]	> 1 µM	< 0.1 µM	0.005 µM	< 0.1 µM	0.016 µM	–	–	–	–
COc1ncc2cc1NS(=O)(=O)c1cccc(c1)C(=O)NCCn1cc(cn1)-c1ncnc3c1SC2=C3 [compound 36]	0.1 to 1 µM	0.1 to 1 µM	–	> 1 µM	–	–	–	–	–
COc1ncc2cc1NS(=O)(=O)c1cccc(c1)C(=O)NCc1cccc(c1)-c1ncnc3sc-2cc13 [compound 37]	> 1 µM	< 0.1 µM	0.02 µM	> 1 µM	–	–	–	–	–
COc1ncc2cc1NS(=O)(=O)c1cccc(c1)C(=O)NCC1CCN(CC1)c1ncnc3cc-2sc13 [compound 38]	> 1 µM	> 1 µM	–	> 1 µM	–	–	–	–	–
COc1ncc2cc1NS(=O)(=O)c1cccc(c1)C(=O)NCc1cc(cs1)-c1ncnc3c1SC2=C3 [compound 74]	0.1 to 1 µM	> 1 µM	–	–	–	–	–	–	–
COc1ncc2cc1NS(=O)(=O)c1cccc(c1)C(=O)N[C@H]1CCCN(C1)c1ncnc3c1SC2=C3 [compound 75]	> 1 µM	> 1 µM	–	–	–	–	–	–	–
COc1ncc2cc1NS(=O)(=O)c1cccc(c1)C(=O)N[C@@H]1CCCN(C1)c1ncnc3c1SC2=C3 [compound 76]	0.1 to 1 µM	> 1 µM	–	–	–	–	–	–	–
COc1ncc2cc1NS(=O)(=O)c1cccc(c1)C(=O)NCc1cc(ccn1)-c1cnc3sc-2nn13 [compound 96]	–	–	–	–	–	–	0.0088 µM	< 0.1 µM	0.1 to 1 µM
